# Like-named read-outs stand apart in the source and are kept apart here.
# Experiments:
# [1] = molecular target: T1, immobilized lactase (lactase derived from Aspergillus oryzae) (Aspergillus oryzae, UniProt Q2UCU3); experiment: Residual enzyme activity of immobilized lactase after immersion in disinfectant solutions; assay type: biochemical; details: for Residual enzyme activity (relative ratio, %) after immersion for 7 days / Residual enzyme activity (relative ratio, %) after immersion for 30 days / remaining activity at 1 % / remaining activity at 0.01 % / remaining activity at 70 % / remaining activity at 0.1 %: 18°-20° C.; for remaining activity at 0.01 %: chemical 0.01%; for remaining activity at 70 %: chemical 70%; for remaining activity at 0.1 %: chemical 0.1%
# T1 construct: host or cells: Aspergillus oryzae
# T1 sequence (Q2UCU3 19-1005): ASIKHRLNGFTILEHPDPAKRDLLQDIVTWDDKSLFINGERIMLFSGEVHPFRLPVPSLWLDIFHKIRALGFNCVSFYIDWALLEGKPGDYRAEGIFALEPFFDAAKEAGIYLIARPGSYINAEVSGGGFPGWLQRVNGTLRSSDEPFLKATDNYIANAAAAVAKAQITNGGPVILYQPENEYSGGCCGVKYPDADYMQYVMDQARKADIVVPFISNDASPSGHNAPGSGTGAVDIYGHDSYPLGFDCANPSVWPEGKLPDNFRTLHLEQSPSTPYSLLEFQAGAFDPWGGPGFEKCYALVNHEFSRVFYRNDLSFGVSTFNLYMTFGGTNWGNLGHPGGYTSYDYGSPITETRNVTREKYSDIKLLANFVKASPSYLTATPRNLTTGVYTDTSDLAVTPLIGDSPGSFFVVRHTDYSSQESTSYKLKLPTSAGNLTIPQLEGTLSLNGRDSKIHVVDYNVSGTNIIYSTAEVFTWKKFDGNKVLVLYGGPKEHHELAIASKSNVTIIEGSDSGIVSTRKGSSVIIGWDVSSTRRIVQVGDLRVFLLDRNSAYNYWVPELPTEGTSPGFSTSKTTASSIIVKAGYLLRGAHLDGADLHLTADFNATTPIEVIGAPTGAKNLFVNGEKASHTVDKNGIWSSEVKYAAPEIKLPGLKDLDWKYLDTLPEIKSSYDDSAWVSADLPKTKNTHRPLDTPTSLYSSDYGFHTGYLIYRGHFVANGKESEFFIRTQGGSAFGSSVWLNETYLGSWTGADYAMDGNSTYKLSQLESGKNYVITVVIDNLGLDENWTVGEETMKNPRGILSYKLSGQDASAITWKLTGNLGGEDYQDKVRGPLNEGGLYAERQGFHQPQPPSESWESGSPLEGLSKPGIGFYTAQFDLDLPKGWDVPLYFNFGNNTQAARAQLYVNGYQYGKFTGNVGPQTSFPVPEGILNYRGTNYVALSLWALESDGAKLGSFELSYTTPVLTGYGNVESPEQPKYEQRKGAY
# From the text: As the immobilized lactase was used one prepared by using a macroporous phenol-formaldehyde type amphoteric ion-exchange resin (particle size: 250-840μ) as the carrier, making the same adsorb the lactase derived from Aspergillus oryzae and carrying out the glutaraldehyde treatment to cause immobilization by covalent linkage [EPC publication No. 26672 (published on Apr. 8, 1981)].
# (2) Residual enzyme activity
# […] […] The sample was sufficiently washed with an excessively large amount of water and a 0.05 M acetate buffer solution at pH 4.5 and then the residual activity was measured.
# In 30 ml of lactose solution having a concentration of 13.3 (W/V) % prepared by dissolving lactose in a 0.05 M acetate buffer solution of pH 4.5 was immersed 0.2-0.25 ml of an immobilized lactase. The reaction was allowed to proceed at 30° C. under reciprocating shaking (more than 100 rpm with an amplitude larger than 3.5 cm) for 15 minutes. Then the amount of glucose produced was determined with a glucose oxidase-peroxidase-dye system. The amount of enzyme which produces 1μ mol of glucose per minute is defined as one unit (1 ILU). The dry weight of an immobilized lactase is determined as mentioned below. That is, after the termination of the reaction, the immobilized lactase was filtered, dried at 50° C. under reduced pressure for 8 hours or more, placed in a desiccator at room temperature (18°-25° C.) for 1.5 hours or more, the weight thereof was then measured and this value is regarded as the dry weight of the immobilized lactase. The activity of an immobilized lactase is represented by the unit per gram of dry weight (1 ILU/g-IML).
# [2] = system: Mixture of five strains separated from the putrefied milk; experiment: Disinfecting power (number of viable cells); assay type: cell-based; details: initial 10^5-10^6/ml
# Protocol: (1) Disinfecting power (number of viable cells)
# Milk obtained commercially was putrefied. Mixture of five strains separated from the putrefied milk was suspended in a 0.2 % bouillon solution (pH: 7.0) so that the number of viable cells attains to 10^5 -10^6 /ml. To this suspension was added an equal amount of an undiluted solution having a concentration of each chemical twice as high as that to be applied. A cotton plug was corked to each container and sampling was carried out after 1 hour and 7 days. The sample was diluted at need and plating on the standard agaragar culture medium was effected to count the number of colonies.
# The symbols related to the number of viable cells designate as follows: […]
# [3] = chemical 10%, relative to 860 ILU/g-IML
# [4] = chemical 1%, relative to 860 ILU/g-IML before immersion
# [5] = 168 h, chemical 1%, relative to 860 ILU/g-IML before immersion, read-out: Residual enzyme activity (relative ratio, %) after immersion for 7 days
# [6] = 720 h, chemical 1%, relative to 860 ILU/g-IML before immersion, read-out: Residual enzyme activity (relative ratio, %) after immersion for 30 days
# [7] = 168 h, relative to 860 ILU/g-IML, read-out: Residual enzyme activity (relative ratio, %) after immersion for 7 days
# [8] = 720 h, relative to 860 ILU/g-IML, read-out: Residual enzyme activity (relative ratio, %) after immersion for 30 days
# [9] = concentration of chemical 0.01%
compound,measurement,setting,value
[Cl-].[Na+] [Sodium chloride],"Residual enzyme activity (relative ratio, %) after immersion for 7 days",[1]; [3],100%
same,"Residual enzyme activity (relative ratio, %) after immersion for 30 days",[1]; [3],98%
same,Number of viable cells after 1 hr.,[2]; concentration of chemical 10%,⊖ to ⊕
same,Number of viable cells after 7 days,[2]; concentration of chemical 10%,⊖
"OO [35% H2 O2 solution, hydrogen peroxide]","Residual enzyme activity (relative ratio, %) after immersion for 7 days",[1]; [4],100%
same,"Residual enzyme activity (relative ratio, %) after immersion for 30 days",[1]; [4],98%
same,Number of viable cells after 1 hr.,[2]; concentration of chemical 1%,⊖
same,Number of viable cells after 7 days,[2]; concentration of chemical 1%,⊖
CC(=O)O [Acetic acid],remaining activity at 1 %,[1]; [5],102%
same,remaining activity at 1 %,[1]; [6],100%
same,Number of viable cells after 1 hr.,[2]; concentration of chemical 1%,⊖
same,Number of viable cells after 7 days,[2]; concentration of chemical 1%,⊖
CC(O)C(=O)O (stereo not shown) [Lactic acid],decrease of activity of immobilized lactase on immersion,"[1]; 1% solution, five months at room temperature (18°-25° C.)",completely no decrease of activity
same,remaining activity at 1 %,[1]; [5],103%
same,remaining activity at 1 %,[1]; [6],101%
same,Number of viable cells after 1 hr.,[2]; concentration of chemical 1%,⊖ to ⊕
same,Number of viable cells after 7 days,[2]; concentration of chemical 1%,⊖
O=C(O)CC(O)C(=O)O (stereo not shown) [Malic acid],remaining activity at 1 %,[1]; [5],101%
same,remaining activity at 1 %,[1]; [6],100%
same,Number of viable cells after 1 hr.,[2]; concentration of chemical 1%,⊖
same,Number of viable cells after 7 days,[2]; concentration of chemical 1%,⊖
OCl [Sodium hypochlorite],decrease of activity of immobilized lactase on immersion,"[1]; 0.01% solution, immersed for a long period at 18°-20° C.",decrease of activity to some extent
same,remaining activity at 0.01 %,[1]; [7],96%
same,remaining activity at 0.01 %,[1]; [8],92%
same,Number of viable cells after 1 hr.,[2]; [9],⊖
same,Number of viable cells after 7 days,[2]; [9],⊖
CCO [Ethyl alcohol],decrease of activity of immobilized lactase on immersion,"[1]; 70% solution, immersed for a long period at 18°-20° C.",decrease of activity to some extent
same,remaining activity at 70 %,[1]; [7],84%
same,remaining activity at 70 %,[1]; [8],67%
same,Number of viable cells after 1 hr.,[2]; concentration of chemical 70%,⊖
same,Number of viable cells after 7 days,[2]; concentration of chemical 70%,⊖
C/C=C/C=C/C(=O)[O-].[K+] [Potassium sorbate],remaining activity at 1 %,[1]; [5],103%
same,remaining activity at 1 %,[1]; [6],101%
same,Number of viable cells after 1 hr.,[2]; concentration of chemical 1%,⊖
same,Number of viable cells after 7 days,[2]; concentration of chemical 1%,⊖
CC(=O)C1C(=O)C=C(C)OC1=O (stereo not shown) [Dehydroacetic acid],remaining activity at 0.1 %,[1]; [7],98%
same,remaining activity at 0.1 %,[1]; [8],102%
same,Number of viable cells after 1 hr.,[2]; concentration of chemical 0.1%,⊖
same,Number of viable cells after 7 days,[2]; concentration of chemical 0.1%,⊖
O=CCCCC=O [Glutaraldehyde],remaining activity at 1 %,[1]; [5],102%
same,remaining activity at 1 %,[1]; [6],98%
same,Number of viable cells after 1 hr.,[2]; concentration of chemical 1%,⊖
same,Number of viable cells after 7 days,[2]; concentration of chemical 1%,⊖

# — patent publication US4465772A, “Method for disinfecting and washing of immobilized lactase” (priority 1980, dated 1984)
